The record followed here is publication PMC4957748, “Development of Novel Erythromycin Derivatives with Inhibitory Activity against Proliferation of Tumor Cells” (PLoS ONE, 2016).

Assay [1] concerns cervical carcinoma (HeLa) cells. Description: MTT antiproliferative assay, HeLa. The note with it: 24 h of drug exposure, mean±SD of 3 experiments. The class given is cell-based, human. The protocol: (§1) All cell lines were purchased from American Type Culture Collection (ATCC, Manassas, VA, USA). Non-small cell lung carcinoma cells (A549), hepatocellular carcinoma cells (HepG-2) and breast carcinoma cells (MCF-7) were cultured in DMEM medium (Sigma, St. Louis, MO, USA), while gastric carcinoma cells (BGC-823), laryngeal carcinoma cells (Hep2), cervical carcinoma cells (HeLa) were cultured in RPMI-1640 medium (Sigma, St. Louis, MO, USA), which were supplemented with 10% fetal bovine serum (FBS; TBD, Tianjin, China) at 37°C in humidified atmosphere with 5% CO2.
(§2) The antiproliferative activity of the synthetic compounds was measured by 3-(4, 5- dimethylthiazol-2-yl)-2, 5-diphenyltetrazolium bromide (MTT) assay. Cells were seeded in 96-well plates (Corning, NY, USA) at a density of 8×10^3 per well. After 24 h of incubation, cells were treated with different concentrations (0.1, 0.3, 1, 3 and 10 μg/ml) of the EM-A dimers for the indicated time periods. Afterwards, MTT (Sigma, St. Louis, MO) solution [5.0 mg/ml in phosphate-buffered saline (PBS)] was added (20 μl/well) and incubated for another 4 h at 37°C. The purple formazan crystals were then dissolved in 100 μl dimethyl sulfoxide (DMSO). After 5 min, the plates were read on a plate microreader (TECANSPECTRA, Wetzlar, Germanay) at 490 nm. […]
(Tetrazolium assays rely on reduction of a dye to a coloured formazan, in cell work by metabolically active cells.)

In assay [2] the test system is non-small cell lung carcinoma (A549) cells. Nature of the assay: MTT antiproliferative assay, A549. The class given is cell-based, human. The note with it: 24 h of drug exposure, mean±SD of 3 experiments. The protocol:
as §1, §2

Assay [3] relates to breast carcinoma (MCF-7) cells. Nature of the assay: MTT antiproliferative assay, MCF-7. As to conditions: 24 h of drug exposure, mean±SD of 3 experiments. The class given is cell-based, human. The procedure: as §1, §2
The test system of assay [4] is hepatocellular carcinoma (HepG-2) cells. Nature of the assay: MTT antiproliferative assay, HepG-2. The class given is cell-based, human. As to conditions: 24 h of drug exposure, mean±SD of 3 experiments. The procedure: as §1, §2
Assay [5] relates to laryngeal carcinoma (Hep2) cells. Description: MTT antiproliferative assay, Hep2. The format is cell-based, human. The note with it: 24 h of drug exposure, mean±SD of 3 experiments. The protocol: as §1, §2
Assay [6] deals with normal mouse fibroblast cells (L929). Description: MTT assay, toxicity against normal fibroblasts L929. The format is cell-based. The procedure: (§3) The antiproliferative activity of the synthetic compounds was measured by 3-(4, 5- dimethylthiazol-2-yl)-2, 5-diphenyltetrazolium bromide (MTT) assay. Cells were seeded in 96-well plates (Corning, NY, USA) at a density of 8×10^3 per well. After 24 h of incubation, cells were treated with different concentrations (0.1, 0.3, 1, 3 and 10 μg/ml) of the EM-A dimers for the indicated time periods. Afterwards, MTT (Sigma, St. Louis, MO) solution [5.0 mg/ml in phosphate-buffered saline (PBS)] was added (20 μl/well) and incubated for another 4 h at 37°C. The purple formazan crystals were then dissolved in 100 μl dimethyl sulfoxide (DMSO). After 5 min, the plates were read on a plate microreader (TECANSPECTRA, Wetzlar, Germanay) at 490 nm. The IC50 values were obtained using the software of Dose–Effect Analysis with Microcomputers and were defined as concentration of drug causing 50% inhibition in absorbance compared with control cells. Assays were performed in triplicate from three independent experiments.

For assay [7], the system named is fibrosarcoma (HT-1080) cells. Nature of the assay: MTT antiproliferative assay, HT-1080. The format is cell-based, human. The note with it: mean±SD of 3 experiments. The protocol: (§4) In vitro antiproliferative activity against three human tumor cell lines, including gastric adenocarcinoma (SGC-7901), oral carcinoma (KB) and fibrosarcoma (HT-1080), was evaluated using the MTT assay with cis-platinum (Cpt) as the positive control.
as §3

For assay [8], the system named is gastric carcinoma (BGC-823) cells. Nature of the assay: MTT antiproliferative assay, BGC-823. The format is cell-based, human. As to conditions: 24 h of drug exposure, mean±SD of 3 experiments. The procedure:
as §1, §2

In assay [9] the test system is gastric adenocarcinoma (SGC-7901) cells. Nature of the assay: MTT antiproliferative assay, SGC-7901. The note with it: mean±SD of 3 experiments. The class given is cell-based, human. The protocol: as §4, §3
The subject of assay [10] is oral carcinoma (KB) cells. Nature of the assay: MTT antiproliferative assay, KB. The format is cell-based, human. The note with it: 24 h of drug exposure, mean±SD of 3 experiments. The protocol: as §4, §3
Where [11] appears, read: Homo sapiens, HT-1080, 24 h of drug exposure.
Setting [12] is: Homo sapiens, SGC-7901, 24 h of drug exposure.

SMILES strings stand for the structures. Where only a bound is given, the exact number is not on record here.

Broadly, the IC50 is the point on the concentration scale where inhibition reaches its midpoint. High values mean lower potency, low ones higher potency. For the molecule `N.N.[Cl][Pt][Cl]` [Cpt, cis-platinum], the IC50 was found to be 17.4 ± 1.4 µM in assay [1]; 5.8 ± 0.2 µM in assay [2]; 2.9 ± 0.1 µM in assay [3]; 4.7 ± 0.4 µM in assay [4]; 12.3 ± 1.3 µM in assay [5]; 18.5 µM in assay [6] (24 h of drug exposure). Further, the IC50 in assay [7] (24 h of drug exposure) came to 19.7 ± 1.5 µM; in assay [8], 11.8 ± 0.2 µM; in assay [9] (24 h of drug exposure) it was 4.9 ± 0.4 µM; in assay [10], 4.7 ± 0.3 µM.

With `CCC1OC(=O)C(C)C(O)C(C)C(OC2OC(C)CC(N(C)CC=CCN(C)C3CC(C)OC(OC4C(C)C(OC5CC(C)(OC)C(O)C(C)O5)C(C)C(=O)OC(CC)C(C)(O)C(O)C(C)C(=O)C(C)CC4(C)OC)C3O)C2O)C(C)(OC)CC(C)C(=O)C(C)C(O)C1(C)O` (stereo not drawn) [Compound 1i], the IC50 in assay [6] (L929, 24 h of drug exposure) was more than 100 µM; in [7] (setting [11]), 11.9 ± 0.8 µM; in assay [9] (setting [12]), 27.1 ± 2.2 µM; in assay [10] (Homo sapiens, KB), 3.1 ± 0.3 µM.

As for `CC[C@H]1OC(=O)[C@H](C)[C@@H](O[C@H]2C[C@@](C)(OC)[C@@H](O)[C@H](C)O2)[C@H](C)[C@@H](O[C@@H]2O[C@H](C)C[C@H](N(C)C)[C@H]2O)[C@](C)(OC)C[C@@H](C)C(=O)[C@H](C)[C@@H](O)[C@]1(C)O` [clarithromycin, reference compound], the IC50 in assay [6] (L929, 24 h of drug exposure) was more than 100 µM; in [7] (setting [11]), more than 100 µM; in assay [9] (setting [12]), more than 100 µM; in assay [10] (Homo sapiens, KB) it was more than 100 µM.
